Each structure is given as a SMILES string. Where two headings read alike, the source gives them in different places.

Two molecules from paper PMC10734298 (ACS Omega, 2023) can be followed below.

Series [1] concerns influenza virus (all tested viruses). Nature of the series: microbe, parasite or virus in culture. Format: cell-based, influenza A virus. As to conditions: unidentified influenza virus, MDCK, read-out: EC50 value.
The test system of series [2] is A/Vladivostok/2/09 (H1N1). Format: biochemical, influenza A virus. As to conditions: read-out: Hemagglutination Inhibition Concentration 50 (HIC50).
Series [3] addresses NA of A/chicken/FPV/Rostock/1934 (H7N1) (Influenza A virus, UniProt Q64968). In kind it is biochemical. The note with it: read-out: Neuraminidase Inhibition Concentration 50 (NIC50).
The nature of a further series: Toxicity in MDCK cells. As to conditions: dog.
For series [4], the system named is A/chicken/FPV/Rostock/1934 (H7N1). Format: biochemical, influenza A virus. As to conditions: read-out: Hemagglutination Inhibition Concentration 50 (HIC50).
Series [5] deals with A/Tern/South Africa/1/61 (H5N3). Format: biochemical, influenza A virus. The note with it: read-out: Hemagglutination Inhibition Concentration 50 (HIC50).
For series [6], the system named is A/Vladivostok/2/09 (H1N1). On the set-up: species or system influenza A virus.
Series [7] concerns A/Tern/South Africa/1/61(H5N3). Briefly: microbe, parasite or virus in culture. Format: cell-based, influenza A virus. The note with it: for EC50: Influenza A virus, H5N3, MDCK.
Series [8] has as its system A/chicken/FPV/Rostock/1934 (H7N1). On the set-up: species or system influenza A virus.
Series [9] has as its system A/Tern/South Africa/1/61 (H5N3). Set-up: species or system influenza A virus.
Series [10] deals with A/Almaty/8/98(H3N2). Set-up: species or system influenza A virus.
Series [11] has as its system A/Almaty/8/98(H3N2). Nature of the series: microbe, parasite or virus in culture. In kind it is cell-based, influenza A virus. The note with it: for EC50: Influenza A virus, H3N2, MDCK.
Series [12] is described as follows: Toxicity in fertilized chicken eggs. As to conditions: in vivo, other: inoculated into the allantoic cavity.
In series [13] the test system is A/Almaty/8/98(H3N2). In kind it is biochemical, influenza A virus. As to conditions: read-out: Hemagglutination Inhibition Concentration 50 (HIC50).
Series [14] concerns A/Vladivostok/2/09 (H1N1). Nature of the series: microbe, parasite or virus in culture. As to conditions: for EC50: Influenza A virus, H1N1, MDCK. In kind it is cell-based, influenza A virus.
The subject of series [15] is A/Tern/South Africa/1/61(H5N3). Nature of the series: animal or person. In kind it is in vivo, influenza A virus. As to conditions: for EC50: Influenza A virus, H5N3.
Series [16] has as its system A/Almaty/8/98(H3N2). Nature of the series: animal or person. In kind it is in vivo, influenza A virus. As to conditions: for EC50: Influenza A virus, H3N2.
In series [17] the target is NA of A/Tern/South Africa/1/61 (H5N3) (Influenza A virus, UniProt Q6XV52). Nature of the series: biochemical.
In series [18] the test system is A/chicken/FPV/Rostock/1934(H7N1). Format: cell-based, influenza A virus.
Series [19] deals with A/Vladivostok/2/09 (H1N1). Briefly: animal or person. In kind it is in vivo. The note with it: Influenza A virus.
In series [20] the test system is A/chicken/FPV/Rostock/1934(H7N1). Set-up: species or system influenza A virus. The note with it: in vivo.
Series [21] has as its system NA protein of panel of viruses. Nature of the series: NA inhibition assay, whole virus panel. In kind it is biochemical, influenza A virus. The note with it: read-out: concentrations inhibiting the NA activity; range over panel viruses.

Sequence of NA of A/chicken/FPV/Rostock/1934 (H7N1) (Q64968 whole entry, looked up): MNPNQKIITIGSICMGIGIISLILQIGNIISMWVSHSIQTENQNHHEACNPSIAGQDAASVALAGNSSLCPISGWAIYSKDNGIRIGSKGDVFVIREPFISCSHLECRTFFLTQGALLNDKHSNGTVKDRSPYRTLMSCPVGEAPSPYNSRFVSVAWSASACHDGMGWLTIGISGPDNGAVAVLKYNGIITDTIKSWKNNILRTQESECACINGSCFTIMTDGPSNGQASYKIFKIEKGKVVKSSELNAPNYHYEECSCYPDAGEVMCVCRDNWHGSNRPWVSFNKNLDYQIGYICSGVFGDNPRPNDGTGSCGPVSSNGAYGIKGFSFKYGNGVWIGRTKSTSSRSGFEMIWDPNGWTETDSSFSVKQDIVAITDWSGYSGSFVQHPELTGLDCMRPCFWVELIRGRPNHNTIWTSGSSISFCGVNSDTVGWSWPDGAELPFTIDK
Sequence of NA of A/Tern/South Africa/1/61 (H5N3) (Q6XV52 whole entry, looked up): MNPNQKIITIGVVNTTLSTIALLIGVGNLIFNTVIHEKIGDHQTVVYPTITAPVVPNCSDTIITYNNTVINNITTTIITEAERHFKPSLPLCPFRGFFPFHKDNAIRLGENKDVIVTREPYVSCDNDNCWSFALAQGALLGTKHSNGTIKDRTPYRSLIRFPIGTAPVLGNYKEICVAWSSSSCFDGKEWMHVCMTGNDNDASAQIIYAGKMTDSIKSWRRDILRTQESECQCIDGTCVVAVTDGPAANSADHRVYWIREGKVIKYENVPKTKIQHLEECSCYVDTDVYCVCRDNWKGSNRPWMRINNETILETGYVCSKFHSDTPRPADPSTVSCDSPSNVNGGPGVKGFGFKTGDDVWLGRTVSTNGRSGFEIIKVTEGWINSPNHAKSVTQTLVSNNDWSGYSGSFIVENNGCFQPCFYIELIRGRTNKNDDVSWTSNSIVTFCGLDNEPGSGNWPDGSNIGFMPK

The EC50 is the midpoint of the concentration-response curve. By CC50 is commonly meant the concentration giving 50% cytotoxicity. Low values mean harm at low concentration, high ones better tolerance by the cells. In the case of `COc1cc(-c2oc3cc(O)cc(O)c3c(=O)c2O)ccc1O` [isorhamnetin], the EC50 in series [1] was 28 to 56 µM; in [7], 35.4 ± 0.18 µM; in the series with A/Almaty/8/98(H3N2) [11], 28 ± 0.34 µM; in series [14], 56 ± 0.45 µM; in series [15], 35.4 ± 0.18 µM; in the series with A/Almaty/8/98(H3N2) [16], 28 ± 0.34 µM. Further, the EC50 in [19] turned out to be 56 ± 0.45 µM. Moreover, the IC50 is 156 ± 2 µM in series [2]; 68.2 ± 1.2 µM in [3]; 48.2 ± 1.7 µM in series [4]; 39.3 ± 0.7 µM in series [5]; 50.5 ± 0.45 µM in the series on A/Almaty/8/98(H3N2) [13]; 370 ± 7.5 µM in series [17]. Besides, the CC50 at 48 h in the series “Toxicity in MDCK cells” was over 280 µM. The “Virus Titer Reduction Factor (VTRF)” value is 1.5 ± 0.02 in series [6], 1.5 ± 0.02 in [8], 1.9 ± 0.02 in series [9] and 1.5 ± 0.02 in the series with A/Almaty/8/98(H3N2) [10]. The SI in [7] is over 7.9; in the series with A/Almaty/8/98(H3N2) [11], over 10.0; in series [14], over 5.0; in [15] (in vivo) it was over 12.0; in the series on A/Almaty/8/98(H3N2) [16] (in vivo), over 15; in [18], over 8.1. Also, the SI in series [20] is on record as over 12.1. This molecule also showed a CC50 at 5 days in series [12] of over 420 µM.
For `CCOC(=O)C1=C[C@@H](OC(CC)CC)[C@H](NC(C)=O)[C@@H](N)C1` [oseltamivir], the EC50 in series [1] was 1.3 to 9.1 µM; in [7], 1.65 ± 0.027 µM; in the series with A/Almaty/8/98(H3N2) [11], 1.33 ± 0.028 µM; in series [14], 9.091 ± 0.04 µM; in series [15], 1.65 ± 0.027 µM; with A/Almaty/8/98(H3N2) [16], 1.33 ± 0.028 µM. The IC50 in series [2] was 155 ± 5.1 µM; in [3], 6.1 ± 0.2 µM; in series [4], 135 ± 6.6 µM; in series [5], 155 ± 2 µM; in the series on A/Almaty/8/98(H3N2) [13], 145 ± 6.6 µM; in [17] it was 20.3 ± 0.5 µM. Further, the IC50 in series [21] was 4 to 20.3 µM. This molecule had a CC50 at 48 h in the series “Toxicity in MDCK cells” of over 100 µM. In addition, the “Virus Titer Reduction Factor (VTRF)” value in [6] was determined as 1.0 ± 0.02; in [8] it was 1.0 ± 0.02; in series [9], 1.0 ± 0.01; in the series with A/Almaty/8/98(H3N2) [10], 1.0 ± 0.02. Also, the CC50 at 5 days in series [12] was over 150 µM.
